Test results taken from US9149546B2, “Compound having affinity for amyloid” (NIHON MEDI-PHYSICS CO., LTD., priority 2011, dated 2015).

How the values were obtained:
[1] = molecular target: amyloid aggregates in the brain of AD patients (Homo sapiens, UniProt P05067); experiment: Binding assay using brain gray matter homogenate of AD patients (Kd, Bmax); conditions: mixed solution of Compound 1 and Compound 3, 0.2 to 25 nmol/L; brain gray matter homogenate (frontal lobe) of AD patients; 22° C., 3 hours
Method: Calculation of Dissociation Constant (Hereinafter, Referred to as Kd) and Maximum Binding Amount (Hereinafter, Referred to as Bmax) Resulting from Binding Assay Using Brain Tissue of Patients of Alzheimer's Disease (Hereinafter, Referred to as AD)
The assay was conducted using a brain gray matter homogenate of AD patients, which was prepared from a brain tissue (Frontal lobe) of AD patients commercially available from Analytical Biological Services Inc. (United States).
A mixed solution of Compound 1 (about 35 kBq/100 μL) and Compound 3 (62.5 nmol/L) was diluted with a 0.1% bovin serum albumin (hereinafter referred to as BSA)-containing 5 mmol/L phosphate buffer saline solution, and prepared to have a concentration of 0.2 nmol/L to 25 nmol/L in the reaction solution. To each well of a 96-well microplate, 100 μL of a 0.1% BSA-containing 5 mmol/L phosphate buffer saline solution and 100 μL of the prepared mixed solution of Compound 1 and Compound 3 were added. […] The filter after filtration was washed with a 0.1% BSA-containing 5 mmol/L phosphate buffer saline solution (200 μL×3 times), and then radioactivity remaining in the filter was measured with an Autowell Gamma system (type: ARC-7001, manufactured by Aloka). […] The resulting count was analyzed with GraphPad Prism Ver. 5 (manufactured by GraphPad Software, Inc.), and binding parameter (Kd, Bmax) was calculated.

[2] = Measurement of partition coefficient based on the octanol extraction method; assay type: physicochemical; conditions: water saturated 1-octanol / 1-octanol saturated water, 20 to 25±2° C.
Method: Water saturated 1-octanol and 1-octanol saturated water were added to the equilibrated vessel each in an amount of 200 μL, 400 μL or 800 μL. The equilibrated vessel was subjected to stirring, and then was shaken for 5 minutes (20 to 25±2° C., 20 rpm). […] Using the obtained count, log Poctanol was calculated in accordance with the following equation (1).

[3] = Measurement of transferability into brain and clearance; assay type: in vivo, male Wistar rats; conditions: rats, intravenous injection; for Radioactive accumulation per unit weight, After 2 min. / Radioactive accumulation per unit weight, After 5 min. / Radioactive accumulation per unit weight, After 15 min. / Radioactive accumulation per unit weight, After 30 min. / Radioactive accumulation per unit weight, After 60 min.: brain; for Radioactive accumulation per unit weight, After 2 min.: 2 min after injection; for Radioactive accumulation per unit weight, After 5 min.: 5 min after injection; for Radioactive accumulation per unit weight, After 15 min.: 15 min after injection; for Radioactive accumulation per unit weight, After 30 min.: 30 min after injection; for Radioactive accumulation per unit weight, After 60 min.: 60 min after injection; for transferability to brain and clearance from brain (in words): 2 to 60 min
Method: The sample solution was injected under non-anesthesia into the tail vein of male Wistar rats (8-week old) (dosage: 0.2 mL, dosed radioactivity: 7.4 MBq equivalent). The rats were sacrificed by decapitating under non-anesthesia to sample bloods and brains 2, 5, 15, 30 and 60 minutes after the injection. Brains were subjected to measurement of mass of brains and further subjected to measurement of radioactivity (hereinafter referred to as A in this Example) with a single channel analyzer (detector type SP-20 manufactured by OHYO KOKEN KOGYO Co., Ltd.). Further, the radioactivity level of the rest of the whole body including blood was measured in the same manner as above (hereinafter referred to as B in this Example). Using these measurement results, the amount of radioactive accumulation per unit weight of brain (% ID/g) at the respective time points were calculated in accordance with the following formula (2).
Separately, a solution of [^123I]-IMPY dissolved in a physiological saline solution containing 50 mmol/L of L-cysteine hydrochloride (radioactive concentration: 37 MBq/mL) was prepared. The same procedure as above was carried out to calculate the amount of radioactive accumulation per unit weight of brain (% ID/g) at the respective time points.
Meanwhile, in this Example, three animals were used for the experiment at the respective time points.

[4] = tested on: site of amyloid deposition in brain slice of AD patients; experiment: Confirmation of compound avidity for brain slice of AD patients by autoradiography; assay type: binding, human; conditions: 5 μm brain slice of AD patients, 10 kBq/mL, 30 minutes, room temperature; amyloid deposition confirmed by immunostaining
Method: The following experiment was carried out in order to examine whether amyloid in brain of AD patients can be imaged by the compound of the present invention. • (1) A 5 μm-thick brain slice of AD patients was prepared from a brain tissue of AD patients available from Analytical Biological Services Inc. (United States). • (2) The brain slice was immersed in PBS for 15 minutes, 5 minutes and 5 minutes each. […] Then, it was immersed in a 1% BSA-containing PBS solution, a PBS solution and a PBS solution each for 5 minutes to wash the brain slice. The washed brain slice was sufficiently dried, and then exposed to an imaging plate for 16 hours, and then autoradiogram image analysis was carried out by use of a Bio-imaging Analyzer (type: BAS-2500; manufactured by FUJIFILM Corporation) (FIG. 3, FIG. 4, FIG. 5). • (3) Immunostaining at a site of amyloid deposition with an anti-amyloid antibody was carried out using adjacent slices. Anti-Human Amyloidβ (N) (82E1) Mouse IgG MoAb (Immuno-Biological Laboratories Co., Ltd.) was used as the anti-amyloid antibody, and Anti-Mouse IgG (H+L) Goat IgG Fab′-HRP (Immuno-Biological Laboratories Co., Ltd.) was used as a secondary antibody. […] Results

amyloid aggregates in the brain of AD patients, sequence (P05067 672-713): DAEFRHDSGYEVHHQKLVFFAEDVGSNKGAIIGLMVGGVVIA

Row | Compound | Bmax [1] | logP at 5 min ([2]; 1-octanol/water, read-out: logPoctanol value) | logPoctanol value [2] | Radioactive accumulation per unit weight, After 2 min. [3] | Radioactive accumulation per unit weight, After 5 min. [3] | Radioactive accumulation per unit weight, After 15 min. [3] | Radioactive accumulation per unit weight, After 30 min. [3] | Radioactive accumulation per unit weight, After 60 min. [3] | transferability to brain and clearance from brain (in words) [3] | binding to the site of amyloid deposition on autoradiogram [4]
1 | [123I]c1ccc2nc(-c3ccc(-n4ccnn4)cc3)cn2c1 [Compound 1, [^123I]-6-iodo-2-[4-(1H-1,2,3,-triazole-1-yl)phenyl]imidazo[1,2-a]pyridine] | 2242 fmol/mg protein | 1.98 | 1.98 | 1.085 % ID/g | 0.701 % ID/g | 0.260 % ID/g | 0.100 % ID/g | 0.034 % ID/g | excellent transferability to brain and rapid clearance from brain | confirmed
2 | CN(C)c1ccc(-c2cn3cc(I)ccc3n2)cc1 [[^123I]-IMPY, 6-iodo-2-[4′-(N,N-dimethylamino)phenyl]imidazo[1,2-a]pyridine, reference compound] | – | – | – | 1.644 % ID/g | 1.192 % ID/g | 0.554 % ID/g | 0.225 % ID/g | 0.085 % ID/g | – | confirmed
3 | [^123I]-6-iodo-2-[4-(1H-pyrrole-1-yl)phenyl]imidazo[1,2-a]pyridine [Compound 2] | – | – | – | 1.201 % ID/g | 1.065 % ID/g | 0.745 % ID/g | 0.349 % ID/g | 0.113 % ID/g | excellent transferability to brain and rapid clearance from brain | confirmed
